Data: ChEMBL document CHEMBL5523764, “Discovery of NO Donor-Aurovertin Hybrids as Dual Ferroptosis and Apoptosis Inducers for Treating Triple Negative Breast Cancer” (J Med Chem, 2024)

Assays:
4T1 = assay: Antiproliferative activity against mouse 4T1 cells assessed as reduction in cell viability incubated for 72 hrs by MTT assay; format: functional, cell-based; settings: 4T1, 72 h
[1] = Cytotoxicity against human MCF-10A cells assessed as reduction in cell viability incubated for 72 hrs by MTT assay; format: toxicity, cell-based
[2] = Selectivity index, ratio of IC50 for cytotoxicity against human MCF-10A cells to IC50 for antiproliferative activity against human MDA-MB-231 cells; format: toxicity, cell-based; settings: MCF-10A cells versus MDA-MB-231 cells, read-out: Ratio IC50
MDA-MB-231 [3] = assay: Antiproliferative activity against human MDA-MB-231 cells assessed as reduction in cell viability incubated for 72 hrs by MTT assay; format: functional, cell-based; settings: MDA-MB-231, 72 h
MDA-MB-231 [4] = assay: Induction of NO release in human MDA-MB-231 cells assessed NO concentration by Griess reagent based assay; format: functional

IC50 (4T1) | IC50 (MDA-MB-231 [3]) | SMILES | IC50 at 72 h [1] | selectivity ratio [2] | Activity (MDA-MB-231 [4])
0.77 µM | 0.5 µM | CC[C@H]1O[C@@]2(C)[C@H](OC(C)=O)[C@@]1(C)O[C@@H](/C=C/C=C/C=C/c1oc(=O)cc(OC)c1C)[C@@H]2OC(=O)COCCOCCOc1no[n+]([O-])c1S(=O)(=O)c1ccccc1 | > 50 µM | > 100 | –
0.55 µM | 0.42 µM | CC[C@H]1O[C@@]2(C)[C@H](OC(C)=O)[C@@]1(C)O[C@@H](/C=C/C=C/C=C/c1oc(=O)cc(OC)c1C)[C@H]2OC(=O)CCC(=O)OCCCCOc1no[n+]([O-])c1S(=O)(=O)c1ccccc1 | > 50 µM | > 119 | 5.23 µM
8.33 µM | 4.55 µM | CC[C@H]1O[C@@]2(C)[C@H](OC(C)=O)[C@@]1(C)O[C@@H](/C=C/C=C/C=C/c1oc(=O)cc(OC)c1C)[C@@H]2OC(=O)CCCC(=O)OCc1c(-c2ccc(C(F)(F)F)cc2)no[n+]1[O-] | > 50 µM | > 10 | –
– | 9.93 µM | CC[C@H]1O[C@@]2(C)[C@H](OC(C)=O)[C@@]1(C)O[C@@H](/C=C/C=C/C=C/c1oc(=O)cc(OC)c1C)[C@@H]2OC(=O)CCCC(=O)OCc1c(-c2ccccc2)no[n+]1[O-] | – | – | 1.93 µM
4.56 µM | 4.75 µM | CC[C@H]1O[C@@]2(C)[C@H](OC(C)=O)[C@@]1(C)O[C@@H](/C=C/C=C/C=C/c1oc(=O)cc(OC)c1C)[C@@H]2OC(=O)CCCC(=O)OCc1c(-c2ccc(Br)cc2)no[n+]1[O-] | > 50 µM | > 10 | 2.65 µM

The remaining lines, values behind:

SMILES | IC50 (4T1) | IC50 (MDA-MB-231 [3]) | IC50 at 72 h [1] | selectivity ratio [2] | Activity (MDA-MB-231 [4])
CC[C@H]1O[C@@]2(C)[C@H](OC(C)=O)[C@@]1(C)O[C@@H](/C=C/C=C/C=C/c1oc(=O)cc(OC)c1C)[C@@H]2OC(=O)CCCC(=O)OCc1c(-c2ccc(F)cc2)no[n+]1[O-] | > 10 µM | 7.24 µM | > 50 µM | > 7 | 2.27 µM
CC[C@H]1O[C@]2(C)C(OC(=O)CCCC(=O)OCc3c(CSCCC(=O)O)no[n+]3[O-])[C@H](/C=C/C=C/C=C/c3oc(=O)cc(OC)c3C)O[C@]1(C)[C@H]2OC(C)=O (single isomer, unassigned) | – | > 10 µM | – | – | 1.89 µM
CC[C@H]1O[C@@]2(C)[C@H](OC(C)=O)[C@@]1(C)O[C@@H](/C=C/C=C/C=C/c1oc(=O)cc(OC)c1C)[C@H]2OC(=O)CCC(=O)OCCc1ccc(Oc2no[n+]([O-])c2S(=O)(=O)c2ccccc2)cc1 | 5.56 µM | 3.28 µM | > 50 µM | > 15 | –
CC[C@H]1O[C@@]2(C)[C@H](OC(C)=O)[C@@]1(C)O[C@@H](/C=C/C=C/C=C/c1oc(=O)cc(OC)c1C)[C@@H]2OC(=O)CCCCCCCCCCCCCOc1no[n+]([O-])c1S(=O)(=O)c1ccccc1 | – | > 10 µM | – | – | –
CC[C@H]1O[C@@]2(C)[C@H](OC(C)=O)[C@@]1(C)O[C@@H](/C=C/C=C/C=C/c1oc(=O)cc(OC)c1C)[C@@H]2OC(=O)CCCCCOc1no[n+]([O-])c1S(=O)(=O)c1ccccc1 | 2.14 µM | 0.99 µM | > 50 µM | > 50 | –
CC[C@H]1O[C@@]2(C)[C@H](OC(C)=O)[C@@]1(C)O[C@@H](/C=C/C=C/C=C/c1oc(=O)cc(OC)c1C)[C@@H]2OC(=O)CCC(=O)ONC(=O)CCCOc1no[n+]([O-])c1S(=O)(=O)c1ccccc1 | 1.55 µM | 0.69 µM | > 50 µM | > 72 | –
CC[C@H]1O[C@]2(C)C(OC(=O)CCCC(=O)OCc3c(CSCCCO)no[n+]3[O-])[C@H](/C=C/C=C/C=C/c3oc(=O)cc(OC)c3C)O[C@]1(C)[C@H]2OC(C)=O (single isomer, unassigned) | – | > 10 µM | – | – | 2.02 µM
N=C(N)NCCC[C@H](N)C(=O)O [ARGININE] | – | – | – | – | 1.31 µM
CC[C@H]1O[C@@]2(C)[C@H](OC(C)=O)[C@@]1(C)O[C@@H](/C=C/C=C/C=C/c1oc(=O)cc(OC)c1C)[C@@H]2OC(=O)CCCC(=O)OCc1c(CSC[C@@H](NC(C)=O)C(=O)O)no[n+]1[O-] | – | > 10 µM | – | – | 1.71 µM
CC[C@H]1O[C@]2(C)C(OC(=O)CCC(=O)OCc3cccc(Oc4no[n+]([O-])c4S(=O)(=O)c4ccccc4)c3)[C@H](/C=C/C=C/C=C/c3oc(=O)cc(OC)c3C)O[C@]1(C)[C@H]2OC(C)=O (single isomer, unassigned) | – | > 10 µM | – | – | 2.15 µM
CC[C@H]1O[C@@]2(C)[C@H](OC(C)=O)[C@@]1(C)O[C@@H](/C=C/C=C/C=C/c1oc(=O)cc(OC)c1C)[C@H]2OC(=O)CCC(=O)OCCCCCCOc1no[n+]([O-])c1S(=O)(=O)c1ccccc1 | 0.72 µM | 0.45 µM | > 50 µM | > 111 | 4.92 µM
